Measurements from PMC5341858, “Molecular regulation of apoptotic machinery and lipid metabolism by mTORC1/mTORC2 dual inhibitors in preclinical models of HER2+/PIK3CAmut breast cancer” (Oncotarget, 2016).

What was measured:
[1] = tested on: MDA-MB-453 and 786-O tumors; test: In vivo antitumor efficacy, oral once daily
Description: (§1) Animal studies were performed under protocols approved by Institutional Animal Care and Use Committee (IACUC) of Fudan University. Balbc female nude mice bearing MDA-MB-453, HCC1806 or 786-O tumors were staged at initial tumor volume of 150-200 mm^3 and randomized into treatment groups (n=/>8). […] Lapatinib and Sunitinib were formulated in 0.5% hydroxypropyl methyl cellulose (HPMC)-0.2% tween-80 as homogeneous suspension. All test agents were prepared twice weekly. Mice were dosed orally once daily (qd). Tumor growth inhibition rate (TGI) was calculated: TGI=[1-(Vt-Vi)/(Vc-Vi)]×100, where Vt: tumor volume of drug treated group, Vc: tumor volume of vehicle control group, Vi: initial tumor volume at staging. For biomarker studies, frozen tumors were made lysates and immunoblotted as previously described. For detecting apoptosis, tumors were excised, fixed in 4% formalin for 24 h and embedded in paraffin. Slides were processed for terminal deoxynuleotidyl transferase dUTP nick end labeling (TUNEL) using an assay kit (KeyGen Biotech, KGA7061) following vendor's instruction manual. For IHC staining, tumor slides described above were deparaffinized, rehydrated and permeablized with 1% Triton X-100. Antigens were retrieved with Tris/EDTA (pH 9.0) under microwave heating for 20 min. The slides were blocked in Tris buffered saline with 5% BSA-0.3 M glycine and reacted with anti-CPT1A (Proteintech #15184-1-AP) or anti-P-ACL S455 (Abcam #59297) and detected with peroxidase-conjugated secondary antibody (Jackson # 111-035-003). Images were acquired using Leica microscope (model DMI4000D). Staining levels were analyzed on the basis of mean optical density quantified by software image pro plus 6.0.

[2] = tested on: P-S6 and P-AKT in MDA-MB-453 tumors; test: mTOR biomarkers in tumor tissue (immunoblot); assay type: in vivo, mice
Description: as §1, with “Slides were processed for terminal deoxynuleotidyl transferase dUTP nick end labeling (TUNEL) using an assay kit (KeyGen Biotech, KGA7061) following vendor's instruction manual. For IHC staining, tumor slides described above were deparaffinized, rehydrated and permeablized with 1% Triton X-100. Antigens were retrieved with Tris/EDTA (pH 9.0) under microwave heating for 20 min.” left out, “Images were acquired using Leica microscope (model DMI4000D).” left out

CNC(=O)c1cccc(-c2ccc3c(N4C5CCC4COC5)nc(N4CCOC[C@@H]4C)nc3n2)c1 [MTI-31]
tumor growth inhibition (TGI) at MED ([1]; 5 mg/kg oral qd, p<0.01): > 50%
body weight loss at MTD ([1]; 40 mg/kg oral qd, without mortality): 7-15%
tumor response, large size tumors ([1]; nude mice bearing large size MDA-MB-453 tumors, 40 mg/kg qd): rapid and dramatic tumor regression
minimum efficacious dose (MED) ([1]; oral, qd, nude mice, MDA-MB-453 and 786-O models): 5 mg/kg
maximum tolerated dose (MTD) ([1]; oral, qd, nude mice, without mortality): 40 mg/kg
P-S6 and P-AKT levels in tumor tissue ([2]; 5 mg/kg oral qd): significantly reduced
P-S6 and P-AKT levels in tumor tissue ([2]; 10 mg/kg oral qd): nearly complete suppression
